Measured values published in ChEMBL document CHEMBL1137656, “Effects of serum on in vitro susceptibility testing of echinocandins” (Antimicrob Agents Chemother, 2007).
Numbered stars: 1 amine (or outer) side, 2 acyl side, 3 side chain; on linkers, the order of the positions; unused ones are H or OH. Bridge positions count the residues as written; N and C are the ends. Square brackets hold non-standard residues; d marks the D form. Peptide text beside a SMILES is read from it. * marks the point of attachment. hTyr(3S-OH,4S-OH,3'-OSO3H) = N[C@H](C(=O)O)[C@H](O)[C@@H](O)c1ccc(O)c(OS(=O)(=O)O)c1; pTerphenylCO(4''-OnC5H11) = CCCCCOc1ccc(-c2ccc(-c3ccc(C(=O)*)cc3)cc2)cc1; Orn(4R-OH,5R-OH) = O=C([C@H](C[C@@H](O)[C@@H](O)N[*:3])N[*:1])[*:2]; hTyr(3S-OH,4S-OH) = N[C@H](C(=O)O)[C@H](O)[C@@H](O)c1ccc(O)cc1; Pro(3S-OH,4S-Me) = C[C@H]1CN[C@H](C(=O)O)[C@H]1O; X1 = CCCCCOc1ccc(-c2cc(-c3ccc(C(=O)*)cc3)no2)cc1; Gln(3R-OH) = NC(=O)C[C@@H](O)[C@H](N)C(=O)O; Hyp = O=C(O)[C@@H]1C[C@@H](O)CN1

Experiments:
Type in all cases: functional
[1] = system: Aspergillus flavus; assay: Ratio of MIC50 for Aspergillus flavus isolate 0001-061 in presence of 50% human serum to MIC50 for Aspergillus flavus isolate 0001-061 in presence of RPMI 1640 medium
[2] = system: Pichia kudriavzevii; assay: Antifungal activity against Candida krusei ATCC 6258 after 24 hrs by CLSI M27-A2 broth microdilution method in presence of RPMI 1640 medium; settings: ATCC 6258, 24 h
[3] = system: Aspergillus flavus; assay: Antifungal activity against Aspergillus flavus isolate 0001-033 after 24 hrs by CLSI M38-A broth microdilution method in presence of 50% human serum; settings: isolate 0001-033, 24 h
[4] = system: Pichia kudriavzevii; assay: Antifungal activity against Candida krusei isolate 0013-054 after 24 hrs by CLSI M27-A2 broth microdilution method in presence of RPMI 1640 medium; settings: isolate 0013-054, 24 h
[5] = system: Pichia kudriavzevii; assay: Antifungal activity against Candida krusei ATCC 6258 after 24 hrs by CLSI M27-A2 broth microdilution method in presence of 50% human serum; settings: ATCC 6258, 24 h
[6] = system: Clavispora lusitaniae; assay: Antifungal activity against Candida lusitaniae isolate 0013-002 after 24 hrs by CLSI M27-A2 broth microdilution method in presence of 50% human serum; settings: isolate 0013-002, 24 h
[7] = system: Candida parapsilosis; assay: Antifungal activity against Candida parapsilosis isolate 0014-074 after 24 hrs by CLSI M27-A2 broth microdilution method in presence of RPMI 1640 medium; settings: Lodderomyces parapsilosis, isolate 0014-074, 24 h
[8] = system: Candida albicans; assay: Antifungal activity against Candida albicans isolate 0012-025 after 24 hrs by CLSI M27-A2 broth microdilution method in presence of RPMI 1640 medium; settings: isolate 0012-025, 24 h
[9] = system: Candida albicans; assay: Antifungal activity against Candida albicans isolate 0012-025 after 24 hrs by CLSI M27-A2 broth microdilution method in presence of 50% human serum; settings: isolate 0012-025, 24 h
[10] = system: Candida albicans; assay: Ratio of MIC50 for Candida albicans isolate 0012-025 in presence of 50% human serum to MIC50 for Candida albicans isolate 0012-025 in presence of RPMI 1640 medium
[11] = system: Candida albicans; assay: Antifungal activity against Candida albicans isolate 0021-076 after 24 hrs by CLSI M27-A2 broth microdilution method in presence of 50% human serum; settings: isolate 0021-076, 24 h
[12] = system: Clavispora lusitaniae; assay: Ratio of MIC50 for Candida lusitaniae isolate 0013-002 in presence of 50% human serum to MIC50 for Candida lusitaniae isolate 0013-002 in presence of RPMI 1640 medium
[13] = system: Clavispora lusitaniae; assay: Antifungal activity against Candida lusitaniae isolate 0015-049 after 24 hrs by CLSI M27-A2 broth microdilution method in presence of 50% human serum
[14] = system: Candida parapsilosis; assay: Antifungal activity against Candida parapsilosis isolate 0014-074 after 24 hrs by CLSI M27-A2 broth microdilution method in presence of 50% human serum; settings: Lodderomyces parapsilosis, isolate 0014-074, 24 h
[15] = system: Candida parapsilosis; assay: Ratio of MIC50 for Candida parapsilosis isolate 0014-074 in presence of 50% human serum to MIC50 for Candida parapsilosis isolate 0014-074 in presence of RPMI 1640 medium
[16] = system: Candida parapsilosis; assay: Antifungal activity against Candida parapsilosis isolate 0011-013 after 24 hrs by CLSI M27-A2 broth microdilution method in presence of RPMI 1640 medium; settings: Lodderomyces parapsilosis, isolate 0011-013, 24 h
[17] = system: Candida parapsilosis; assay: Antifungal activity against Candida parapsilosis isolate 0011-013 after 24 hrs by CLSI M27-A2 broth microdilution method in presence of 50% human serum; settings: Lodderomyces parapsilosis, isolate 0011-013, 24 h
[18] = system: Candida parapsilosis; assay: Antifungal activity against Candida parapsilosis isolate 0026-003 after 24 hrs by CLSI M27-A2 broth microdilution method in presence of RPMI 1640 medium; settings: Lodderomyces parapsilosis, isolate 0026-003, 24 h
[19] = system: Candida parapsilosis; assay: Antifungal activity against Candida parapsilosis isolate 0026-003 after 24 hrs by CLSI M27-A2 broth microdilution method in presence of 50% human serum; settings: Lodderomyces parapsilosis, isolate 0026-003, 24 h
[20] = system: Candida parapsilosis; assay: Antifungal activity against Candida parapsilosis isolate 0036-030 after 24 hrs by CLSI M27-A2 broth microdilution method in presence of 50% human serum; settings: Lodderomyces parapsilosis, isolate 0036-030, 24 h
[21] = system: Candida parapsilosis; assay: Antifungal activity against Candida parapsilosis ATCC 22019 after 24 hrs by CLSI M27-A2 broth microdilution method in presence of RPMI 1640 medium; settings: Lodderomyces parapsilosis, ATCC 22019, 24 h
[22] = system: Candida parapsilosis; assay: Antifungal activity against Candida parapsilosis ATCC 22019 after 24 hrs by CLSI M27-A2 broth microdilution method in presence of 50% human serum; settings: Lodderomyces parapsilosis, ATCC 22019, 24 h
[23] = system: Nakaseomyces glabratus; assay: Antifungal activity against Candida glabrata isolate 0022-012 after 24 hrs by CLSI M27-A2 broth microdilution method in presence of RPMI 1640 medium; settings: isolate 0022-012, 24 h
[24] = system: Nakaseomyces glabratus; assay: Antifungal activity against Candida glabrata isolate 0022-012 after 24 hrs by CLSI M27-A2 broth microdilution method in presence of 50% human serum; settings: isolate 0022-012, 24 h
[25] = system: Nakaseomyces glabratus; assay: Ratio of MIC50 for Candida glabrata isolate 0022-012 in presence of 50% human serum to MIC50 for Candida glabrata isolate 0022-012 in presence of RPMI 1640 medium
[26] = system: Candida parapsilosis; assay: Ratio of MIC50 for Candida parapsilosis ATCC 22019 in presence of 50% human serum to MIC50 for Candida parapsilosis ATCC 22019 in presence of RPMI 1640 medium
[27] = system: Candida tropicalis; assay: Antifungal activity against Candida tropicalis isolate 0050-028 after 24 hrs by CLSI M27-A2 broth microdilution method in presence of RPMI 1640 medium; settings: isolate 0050-028, 24 h
[28] = system: Aspergillus terreus; assay: Ratio of MIC50 for Aspergillus terreus isolate 0031-087 in presence of 50% human serum to MIC50 for Aspergillus terreus isolate 0031-087 in presence of RPMI 1640 medium
[29] = system: Aspergillus fumigatus; assay: Antifungal activity against Aspergillus fumigatus isolate 0020-018 after 24 hrs by CLSI M38-A broth microdilution method in presence of 50% human serum; settings: isolate 0020-018, 24 h
[30] = system: Aspergillus fumigatus; assay: Antifungal activity against Aspergillus fumigatus isolate 0002-020 after 24 hrs by CLSI M38-A broth microdilution method in presence of 50% human serum; settings: isolate 0002-020, 24 h
[31] = system: Aspergillus fumigatus; assay: Ratio of MIC50 for Aspergillus fumigatus isolate 0002-020 in presence of 50% human serum to MIC50 for Aspergillus fumigatus isolate 0002-020 in presence of RPMI 1640 medium
[32] = system: Aspergillus fumigatus; assay: Antifungal activity against Aspergillus fumigatus isolate 0002-021 after 24 hrs by CLSI M38-A broth microdilution method in presence of 50% human serum; settings: isolate 0002-021, 24 h
[33] = system: Aspergillus fumigatus; assay: Ratio of MIC50 for Aspergillus fumigatus isolate 0002-021 in presence of 50% human serum to MIC50 for Aspergillus fumigatus isolate 0002-021 in presence of RPMI 1640 medium

SMILES	Ratio [1]	MIC50 [2]	MIC50 [3]	MIC50 [4]	MIC50 [5]	MIC50 [6]	MIC50 [7]	MIC50 [8]	MIC50 [9]	Ratio [10]	MIC50 [11]	Ratio [12]	MIC50 [13]	MIC50 [14]	Ratio [15]	MIC50 [16]	MIC50 [17]	MIC50 [18]	MIC50 [19]	MIC50 [20]	also measured
CC[C@H](C)C[C@H](C)CCCCCCCCC(=O)N[C@H]1C[C@@H](O)[C@@H](NCCN)NC(=O)[C@@H]2[C@@H](O)CCN2C(=O)[C@H]([C@H](O)CCN)NC(=O)[C@H]([C@H](O)[C@@H](O)c2ccc(O)cc2)NC(=O)[C@@H]2C[C@@H](O)CN2C(=O)[C@H]([C@@H](C)O)NC1=O [CASPOFUNGIN]	1	0.5 µg/mL	128 µg/mL	0.5 µg/mL	4 µg/mL	0.25 µg/mL	0.25 µg/mL	0.25 µg/mL	0.25 µg/mL	1	4 µg/mL	1	1 µg/mL	0.5 µg/mL	2	0.25 µg/mL	1 µg/mL	1 µg/mL	8 µg/mL	8 µg/mL	MIC50 [21]: 0.5 µg/mL; MIC50 [22]: 8 µg/mL; MIC50 [23]: 0.5 µg/mL; MIC50 [24]: 0.5 µg/mL; Ratio [25]: 1; Ratio [26]: 16; MIC50 [27]: 0.5 µg/mL; Ratio [28]: 1; MIC50 [29]: 128 µg/mL; MIC50 [30]: 128 µg/mL; Ratio [31]: 256; MIC50 [32]: 128 µg/mL; Ratio [33]: 128
CCCCCOc1ccc(-c2cc(-c3ccc(C(=O)N[C@H]4C[C@@H](O)[C@@H](O)NC(=O)[C@@H]5[C@@H](O)[C@@H](C)CN5C(=O)[C@H]([C@H](O)CC(N)=O)NC(=O)[C@H]([C@H](O)[C@@H](O)c5ccc(O)c(OS(=O)(=O)O)c5)NC(=O)[C@@H]5C[C@@H](O)CN5C(=O)[C@H]([C@@H](C)O)NC4=O)cc3)no2)cc1 [MICAFUNGIN] (X1-[Orn(4R-OH,5R-OH)]T[Hyp][hTyr(3S-OH,4S-OH,3'-OSO3H)][Gln(3R-OH)][Pro(3S-OH,4S-Me)]; lactam 1-C)	1024	0.0625 µg/mL	128 µg/mL	0.125 µg/mL	8 µg/mL	1 µg/mL	0.0156 µg/mL	0.0156 µg/mL	1 µg/mL	64	64 µg/mL	128	4 µg/mL	0.5 µg/mL	32	0.0156 µg/mL	4 µg/mL	0.5 µg/mL	64 µg/mL	128 µg/mL	MIC50 [21]: 0.5 µg/mL; MIC50 [22]: 32 µg/mL; MIC50 [23]: 0.0156 µg/mL; MIC50 [24]: 1 µg/mL; Ratio [25]: 64; Ratio [26]: 64; MIC50 [27]: 0.25 µg/mL; Ratio [28]: 128; MIC50 [29]: 0.5 µg/mL; MIC50 [30]: 0.5 µg/mL; Ratio [31]: 128; MIC50 [32]: 1 µg/mL; Ratio [33]: 1024
CCCCCOc1ccc(-c2ccc(-c3ccc(C(=O)N[C@H]4C[C@@H](O)[C@@H](O)NC(=O)[C@@H]5[C@@H](O)[C@@H](C)CN5C(=O)[C@H]([C@@H](C)O)NC(=O)[C@H]([C@H](O)[C@@H](O)c5ccc(O)cc5)NC(=O)[C@@H]5C[C@@H](O)CN5C(=O)[C@H]([C@@H](C)O)NC4=O)cc3)cc2)cc1 [ANIDULAFUNGIN] ({pTerphenylCO(4''-OnC5H11)}-[Orn(4R-OH,5R-OH)]T[Hyp][hTyr(3S-OH,4S-OH)]T[Pro(3S-OH,4S-Me)]; lactam 1-C)	32	0.125 µg/mL	128 µg/mL	0.125 µg/mL	2 µg/mL	1 µg/mL	0.004 µg/mL	0.0156 µg/mL	0.25 µg/mL	16	128 µg/mL	512	1 µg/mL	0.25 µg/mL	64	0.0313 µg/mL	2 µg/mL	2 µg/mL	128 µg/mL	128 µg/mL	MIC50 [21]: 0.5 µg/mL; MIC50 [22]: 64 µg/mL; MIC50 [23]: 0.0313 µg/mL; MIC50 [24]: 1 µg/mL; Ratio [25]: 32; Ratio [26]: 128; MIC50 [27]: 1 µg/mL; Ratio [28]: 16; MIC50 [29]: 128 µg/mL; MIC50 [30]: 0.5 µg/mL; Ratio [31]: 64; MIC50 [32]: 128 µg/mL; Ratio [33]: 64000
